Source: US20070250942A1, “Non-human transgenic mammals useful for identifying and assessing neural stem/progenitor cells” (Cold Spring Harbor Laboratory, priority 2006, published 2007)
Structures can show the parent of a compound that is named as a salt.

Columns and labels:
adult dentate gyrus = assay: Fluoxetine effect on neuronal precursor classes in the adult dentate gyrus of nestin-CFPnuc mice (confocal stereology, BrdU labeling); assay type: in vivo, mouse
Protocol: (§1) Immunohistochemistry. Tissues were fixed by transcardial perfusion with 30 ml of 4% (w/v) paraformaldehyde in PBS, pH 7.4. The brains were removed, cut longitudinally into two hemispheres and postfixed for 3 hrs at room temperature, then transferred to PBS and kept at 4° C. Serial sagittal sections, 50-μm thick, were cut with a Vibratome 1500 (Vibratome, St. Louis, Mo.). Immunostaining was carried following the standard procedure. The sections were incubated with primary antibodies to the target protein (see the list below) at 4° C. in PBS containing 0.2% Triton-100X and 3% BSA. After thorough washing with PBS, appropriate secondary antibodies (see the list below) were incubated in the same solution for 1 hr at room temperature. After washing with PBS, the sections were mounted on gelatine coated slides with DakoCytomation Fluorescent Mounting Medium (DakoCytomation, Carpinteria, Calif.). For the analysis of 5-bromo-2-deoxyuridine (BrdU) incorporation, sections were treated with 2M HCl for 30 min at 55° C., washed with PBS, treated with 1 mM sodium tetraborate for 10 min at room temperature, and finally washed with PBS. The following antibodies were used: chicken anti-GFP (Aves Laboratories, Tigard, Oreg.) 1:500; guinea pig anti-GFAP (Advanced Immunochemicals, Long Beach, Calif.) 1:500; mouse anti-nestin (Chemicon International, Temecula, Calif.) 1:100; mouse anti-NeuN (Chemicon) 1:800; rabbit anti Dcx (generous gift from Dr. C. A. Walsh, Harvard Medical School) 1:2500; rabbit anti-Prox I (generous gift from Dr. S. J. Pleasure, UCSF) 1:2000; rat anti-BrdU (Serotec, Raleigh, N.C.) 1:400; mouse anti-PSA-NCAM (Chemicon) 1:400; AlexaFluor 488 goat anti-chicken (Molecular Probes, Willow Creek Road, Eugene, Oreg.) 1:500; AlexaFluor 594 goat anti-mouse (Molecular Probes) 1:500; AlexaFluor 568 goat anti-rat (Molecular Probes) 1:500; Cy5 goat anti-guinea pig (Jackson Immunoresearch, West Grove, Pa.) 1:500; Cy5 goat anti-rabbit (Jackson Immunoresearch) 1:500; Texas Red donkey anti-chicken (Jackson Immunoresearch) 1:500.
(§2) Quantification. Quantitative analysis of cell populations was performed by means of design-based (assumption free, unbiased) stereology. Slices were collected using systematic-random sampling. One brain hemisphere was randomly selected per animal. The hemisphere was sliced sagittaly, in a lateral-to-medial direction, from the beginning until the end of the lateral ventricle, thus including the whole DG. The 50 μm slices, obtained with a 1500 Vibratome (Vibratome, St. Louis, Mo.), were collected in 6 parallel sets (5 in the case of the juvenile mice), each set consisting of 12 slices, each slice 300 μm apart from the next.
(§3) For counts in the DG, all the cells of each type described were counted in every slice, excluding those in the uppermost focal plane. The volume of the reference space (of the granule cell layer (GCL)+the subgranular zone (SGZ)) was calculated by the Cavalieri-point method. In the subventricular zone (SVZ), for BrdU counts, all the BrdU stained cells were counted in each slice, excluding those in the uppermost focal plane. For nestin-CFP cells, the two-stage approach was used. At least 10 optical disectors (20×20×20 μm), placed following a systematic-random manner, were applied on each slice. Then the volume of the space reference (of the SVZ) was estimated using the Cavalieri-point method.
(§4) All the imaging and quantification procedures were performed using a Zeiss LSM 510 confocal microscope and its software. Statistical analysis and graphs of the numeric data were obtained using SigmaPlot software (SYSTAT, Port Richmond, Calif.) and JMP (SAS Institute Inc., Cary, N.C.).
(§5) On the last day a single injection of BrdU, 150 mg/kg was also administered. […] On the last day they were also given a single injection of BrdU, 150 mg/kg. In both sets of experiments, animals were sacrificed either 24 h or 30 days after the end of the treatment and the BrdU injection.

[1] = exposure of newborn (p4) mice; cited from earlier work
juvenile dentate gyrus = assay: Fluoxetine effect on neuronal precursor classes in the juvenile dentate gyrus of nestin-CFPnuc mice; assay type: in vivo, mouse
Protocol: as §1, §2
In the young animals, all the BrdU cells were counted in each slice, excluding those in the uppermost focal plane. The number of nestin-CFPnuc stained cells, the QNPs, and the ANPs, was estimated using the two-stage approach. At least 5 optical dissectors (20×20×20 μm) placed in a systematic-random manner, were applied to each slice. Then the volume of the space reference (of the SGZ) was estimated using the Cavalieri-point method.
as §4, §5
The action of fluoxetine on stem/progenitor cells was investigated for similarity in both the juvenile and adult brain. […] In the DG of treated juvenile mice, precursor cells can be divided into the same categories as the cells in the adult brain (note that the animals are 20 or 49 days old at the time of analysis). […]

[2] = test system: subventricular zone (SVZ); assay: Fluoxetine effect on neurogenesis in the subventricular zone of adult nestin-CFPnuc mice; assay type: in vivo, mouse; conditions: 15 days treatment
Protocol: as §1, §2, §3
All the imaging and quantification procedures were performed using a Zeiss LSM 510 confocal microscope and its software. […]

[3] = test system: dentate gyrus (DG) of the adult brain; conditions: cited from earlier work
[4] = adult, 15 days treatment, 24 h, mean±SEM, n=8
[5] = adult, 15 days treatment, 24 h, n=6
[6] = adult, 15 days treatment, 24 h, vs vehicle
[7] = adult, 15 days treatment, 1 day after BrdU, n=8
[8] = adult, 15 days treatment, sacrificed 30 days later, n=6
[9] = 15 days from p5, 1 day, vs vehicle
[10] = 30 days after end of administration, n=5

Compound: CNCCC(Oc1ccc(C(F)(F)F)cc1)c1ccccc1 (stereo not shown) [fluoxetine, fluoxetine hydrochloride]
- increase in number of BrdU-labeled cells in the DG (adult dentate gyrus; 7-month old mice, 10 mg/kg once per day for 15 days, 24 h after BrdU, vs vehicle): 40.9%
- number of BrdU-labeled cells in the DG (adult dentate gyrus; adult, 10 mg/kg/day 15 days, 24 h after BrdU, mean±SEM, n=8): 758±58
- change in Dcx-positive cells (compared with PSA-NCAM-positive cells) (adult dentate gyrus; adult, 15 days treatment, 24 h): Identical changes
- number of ANP cells (adult dentate gyrus; [4]): 5745±506
- number of QNP cells (adult dentate gyrus; [4]): 4675±518
- number of BrdU-labeled ANPs (adult dentate gyrus; [5]): 410±33
- number of BrdU-labeled QNPs (adult dentate gyrus; [5]): 90±16
- number of PSA-NCAM-positive cells (NB1, NB2 and IN) (adult dentate gyrus; adult, 15 days treatment, 24 h, n=8): 11298±719
- change in number of BrdU-labeled QNPs (adult dentate gyrus; [6]): not affected
- change in number of QNP cells (adult dentate gyrus; [6]): no change
- fraction of dividing cells among ANPs (adult dentate gyrus; [6]): did not change
- fraction of dividing cells among QNPs (adult dentate gyrus; [6]): did not change
- increase in number of ANP cells (adult dentate gyrus; [6]): 49.6%
- increase in number of BrdU-labeled ANPs (adult dentate gyrus; [6]): 46.4%
- increase in number of CFPnuc-positive cells (QNPs and ANPs together) (adult dentate gyrus; [6]): 24.7%
- increase in number of PSA-NCAM-positive cells (NB1, NB2 and IN) (adult dentate gyrus; [6]): 26.5±7.2%
- number of IN cells (adult dentate gyrus; [7]): 858±88
- number of NB1 cells (adult dentate gyrus; [7]): 6988±538
- number of NB2 cells (adult dentate gyrus; [7]): 3452±413
- increase in number of NB1 cells (adult dentate gyrus; adult, 15 days treatment, 1 day after BrdU, vs vehicle): 42.1%
- fraction of BrdU+NeuN+ cells among total BrdU-positive cells (adult dentate gyrus; adult, 15 days treatment, sacrificed 30 days later): 92.8±1.6%
- number of BrdU-labeled NeuN-positive neurons (adult dentate gyrus; [8]): 316±29
- number of BrdU-labeled cells in the DG (adult dentate gyrus; [8]): 342±24
- increase in number of BrdU-labeled cells in the DG (adult dentate gyrus; adult, 15 days treatment, sacrificed 30 days later, vs vehicle): 46.2%
- anxiety when animals become adults [1]: elevated anxiety
- number of ANPs (juvenile dentate gyrus; 15 days from p5, 1 day): 16972±1872
- number of QNPs (juvenile dentate gyrus; 15 days from p5, 1 day): 42048±4328
- number of dividing (BrdU-labeled) ANP cells (juvenile dentate gyrus; 15 days from p5, 1 day): 1698±184
- number of dividing (BrdU-labeled) QNP cells (juvenile dentate gyrus; 15 days from p5, 1 day): 2021±434
- number of nestin-CFPnuc cells (juvenile dentate gyrus; 15 days from p5, 1 day): 61256±4970
- number of BrdU-positive cells in the DG (juvenile dentate gyrus; 15 days from p5, 1 day after BrdU): 9796±834
- change in number of dividing (BrdU-labeled) QNP cells (not statistically significant) (juvenile dentate gyrus; [9]): 28.7%
- fraction of BrdU+NeuN+ cells among total BrdU-positive cells (FIG. 7K BrdU-labeled QNP, FIG. 7L BrdU-labeled ANP) (juvenile dentate gyrus; [9]): did not change
- increase in number of ANPs (juvenile dentate gyrus; [9]): 52.6%
- increase in number of dividing (BrdU-labeled) ANP cells (juvenile dentate gyrus; [9]): 67.7%
- increase in number of nestin-CFPnuc cells (juvenile dentate gyrus; [9]): 35.6%
- change in number of QNPs (did not reach statistical significance) (juvenile dentate gyrus; 15 days from p5, 1 day, vs vehicle, p=0.134): 23.5%
- increase in number of BrdU-positive cells in the DG (juvenile dentate gyrus; 15 days from p5, 30 days after end of administration, vs vehicle): 42.2%
- increase in number of BrdU-positive cells in the DG (juvenile dentate gyrus; 15 days treatment from p5, 1 day after BrdU, vs vehicle): 36.3%
- fraction of BrdU- and NeuN-double-positive cells among total BrdU-positive cells (juvenile dentate gyrus; 30 days after end of administration): 93.6%
- number of BrdU- and NeuN-double-positive cells (juvenile dentate gyrus; [10]): 1892±119
- number of BrdU-positive cells in the DG (juvenile dentate gyrus; [10]): 2026±153
- increase in number of BrdU- and NeuN-double-positive cells (juvenile dentate gyrus; 30 days after end of administration, vs vehicle): 42.3%
- number of BrdU-labeled cells in the SVZ [2]: 9550±769
- number of nestin-CFPnuc cells in the SVZ [2]: 473±55 ×10^3
- volume of the SVZ ([2]; in mm³): 0.603±0.051
- change in number of BrdU-labeled cells in the SVZ ([2]; vs vehicle): No changes
- change in number of nestin-CFPnuc cells, their density and volume of the SVZ ([2]; vs vehicle): no significant changes
- generation of new neurons in the dentate gyrus [3]: increases generation of new neurons
